In patent US20240002368A1 (QILU REGOR THERAPEUTICS INC., priority 2020, published 2024):

What follows are compounds tested on STING pathway (assay: IFN β reporter assay (HTRF, 2′3′-cGAMP-stimulated THP1 cells)). Conditions: Homo sapiens, THP-1, THP1 cells, 5 μM 2′3′-cGAMP, IFN β secretion inhibition; class symbols; read-out: IFN β reporter activity IC50.
Assay type: cell-based, human
Experimental: STING pathway deactivation by the compounds described herein was measured using THP1 cells. The THP1 Cells (obtained from ATCC, Cat #TIB-202) were maintained in RPMI-1640 (Gibco, Cat #22400105), 10% FBS, 1% Pen-Strep, 0.05 mM 2-mercaptoethanol. For STING activation, 2′3′-cGAMP (MW 718.38, obtained from Invivogen) was used and prepared in serum-free RPMI-1640 media. Growth media: RPMI-1640 (HEPES, glutamine), 10% FBS, 1% Pen-Strep, 0.05 mM 2-mercaptoethanol. Assay media: RPMI-1640 (HEPES, glutamine), 0.5% FBS. 2′3′-cGAMP: Dissolve 2′3′-cGAMP to 10 mM stock in H2O.
The cells were prepared and seeded at 100K, 90 μL/well with assay media in cell culture plate (Greiner 655180). The compounds were added in 96-well tissue culture plates by Tecan D300e for a final concentration of 0.00137-3 μM.
Lipo2000/3000 and 2′3′-cGAMP stock solutions were diluted respectively in serum-free RPMI-1640 media. The diluted 2′3′-cGAMP and Lipo (V/V=1:1) were mixed and stood for 15 min at room temperature. 10 μL 2,3-cGAMP/Lipofectamine (10×) was transferred to the 96-well assay plate with a final 2′3′-cGAMP concentration of 5 μM. The cell plates were centrifuged at 1000 rpm for 5 min after incubating at 37° C., 5% CO2 overnight.
All reagents (human IFN beta kit, Cisbio 62HIFNBPEG) were warmed to room temperature for at least 30 min before the assay. The instructions of the kit were followed to prepare the detection media. 14 μL of cell supernatants was transferred into their dedicated wells in 384-well plate. Then 2 μL of the activation reagent solution and 4 μL of the mixed antibody solution were added to all wells. The plate was sealed and incubated for 3 h at room temperature.
The HTRF signal was read in Envision (PerkinElmer). IFN β reporter activity was then measured. The calculated ratio is the signal at 665 nm/signal at 615 nm. IC50 values are calculated by using standard methods known in the art.

| Structure (SMILES) | IC50 |
| --- | --- |
| Cn1cc(C(=O)Nc2c[nH]c3cc(F)c(F)cc23)c2cc(F)c(CNCC(F)(F)F)cc21 [Example 106] | < 50 nM |
| O=C(Nc1c[nH]c2cc(F)c(F)cc12)c1cc2ccc(Br)cn2n1 [Example 58] | 200 to 1000 nM |
| O=C(Nc1c[nH]c2cc(F)c(F)cc12)c1n[nH]c2ccccc12 [Example 63] | 50 to 200 nM |
| O=C(Nc1c[nH]c2cc(F)c(F)cc12)c1c[nH]c2cc(C(F)(F)F)ccc12 [Example 52] | < 50 nM |
| Cn1cc(C(=O)Nc2c[nH]c3ccc(F)cc23)c2ccc(C3CCOCC3)cc21 [Example 73] | 50 to 200 nM |
| Cn1cc(C(=O)Nc2c[nH]c3ccc(F)cc23)c2cc(F)c(C3CCOCC3)cc21 [Example 81] | < 50 nM |
| O=C(Nc1c[nH]c2ccc(F)cc12)c1n[nH]c2cc(C3=CCOCC3)ccc12 [Example 29] | 50 to 200 nM |
| NC(=O)c1ccc2c(C(=O)N(CC(F)(F)F)c3c[nH]c4cc(F)ccc34)n[nH]c2c1 [Example 89, N-(6-fluoro-1H-indol-3-yl)-N-(2,2,2-trifluoroethyl)-1H-indazole-3,6-dicarboxamide] | 200 to 1000 nM |
| CN1CCC(c2ccc3c(C(=O)Nc4c[nH]c5ccc(F)cc45)cn(C)c3c2)CC1 [Example 118] | > 1000 nM |
| O=C(Nc1c[nH]c2ccc(F)cc12)c1n[nH]c2cc(C3CCOCC3)ccc12 [Example 28] | 50 to 200 nM |
| O=C(Nc1c[nH]c2ccc(F)cc12)c1c[nH]c2cc(C(F)(F)F)ccc12 [Example 53] | < 50 nM |
| O=C(Nc1c[nH]c2cc(F)c(F)cc12)c1cc2ccc(C(F)(F)F)cc2[nH]1 [Example 79] | 50 to 200 nM |
| O=C(Nc1c[nH]c2ccc(F)cc12)c1cc2ccc(Br)cn2n1 [Example 57] | < 50 nM |
| Cn1cc(C(=O)Nc2c[nH]c3ccc(F)cc23)c2cc(F)c(C3=CCOCC3)cc21 [Example 80] | 50 to 200 nM |
| CN1CCC(c2cc3c(cc2Cl)c(C(=O)Nc2c[nH]c4ccc(C#N)cc24)cn3C)CC1 [Example 120, 5-chloro-N-(5-cyano-1H-indol-3-yl)-1-methyl-6-(1-methyl-4-piperidyl)indole-3-carboxamide] | > 1000 nM |
| Cn1cc(C(=O)Nc2c[nH]c3ccc(F)cc23)c2cc(F)c(CNC3CCC(F)(F)CC3)cc21 [Example 100] | 50 to 200 nM |
| CCCCc1ccc2c(C(=O)Nc3c[nH]c4ccc(F)cc34)n[nH]c2c1 [Example 61] | 50 to 200 nM |
| Cn1cc(C(=O)Nc2c[nH]c3ccc(F)cc23)c2cc(F)c(CN3CCC(F)(F)CC3)cc21 [Example 98] | < 50 nM |
| O=C(Nc1c[nH]c2ccc(Br)cc12)c1n[nH]c2cc(C(F)(F)F)ccc12 [Example 15] | < 50 nM |

| Structure (SMILES) | IC50 |
| --- | --- |
| O=C(Nc1c[nH]c2ccc(F)cc12)c1cnn2cc(Cl)ccc12 [Example 23] | 200 to 1000 nM |
| O=C(Nc1c[nH]c2cc(F)c(F)cc12)c1c[nH]c2ccccc12 [Example 64] | 50 to 200 nM |
| O=C(Nc1c[nH]c2cc(F)c(F)cc12)c1n[nH]c2cc(C(F)(F)F)ccc12 [Example 17] | < 50 nM |
| COC(=O)c1ccc2[nH]cc(NC(=O)c3cn(C)c4cc(C(F)(F)F)ccc34)c2c1 [Example 33] | 50 to 200 nM |
| C[C@@H]1COCCN1c1cc2c(cc1F)c(C(=O)Nc1c[nH]c3ccc(F)cc13)cn2C [Example 50] | 200 to 1000 nM |
| C[C@H](NCc1cc2c(cc1F)c(C(=O)Nc1c[nH]c3ccc(F)cc13)cn2C)C(F)(F)F [Example 104] | < 50 nM |
| O=C(Nc1c[nH]c2ccc(F)cc12)c1n[nH]c2cc(C(F)(F)F)ccc12 [Example 8] | < 50 nM |
| Cn1cc(C(=O)Nc2c[nH]c3ccc(F)cc23)c2cc(F)c(CNCCC(F)(F)F)cc21 [Example 97, 5-fluoro-N-(5-fluoro-1H-indol-3-yl)-1-methyl-6-[(3,3,3-trifluoropropylamino)methyl]indole-3-carboxamide] | 50 to 200 nM |
| O=C(Nc1c[nH]c2c(F)cccc12)c1n[nH]c2cc(C(F)(F)F)ccc12 [Example 6] | 200 to 1000 nM |
| O=C(Nc1c[nH]c2ccc(F)cc12)c1n[nH]c2cc(Oc3ccncc3)ccc12 [Example 62] | > 1000 nM |
| Cn1cc(C(=O)Nc2c[nH]c3ccc(F)cc23)c2ccc(OCC(F)(F)F)nc21 [Example 74] | 50 to 200 nM |
| Cn1cc(C(=O)Nc2c[nH]c3ccc(P(C)(C)=O)cc23)c2ccc(C(F)(F)F)cc21 [Example 21] | > 1000 nM |
| Cn1cc(C(=O)Nc2c[nH]c3ccc(N4CCN(C(=O)OC(C)(C)C)CC4=O)cc23)c2ccc(C(F)(F)F)cc21 [Example 38] | 50 to 200 nM |
| Cn1cc(C(=O)Nc2c[nH]c3ccc(S(C)(=O)=O)cc23)c2ccc(C(F)(F)F)cc21 [Example 37] | > 1000 nM |
| CNCc1ccc2[nH]cc(NC(=O)c3cn(C)c4cc(C(F)(F)F)ccc34)c2c1 [Example 110, 1-methyl-N-(5-((methylamino)methyl)-1H-indol-3-yl)-6-(trifluoromethyl)-1H-indole-3-carboxamide] | > 1000 nM |
| O=C(Nc1c[nH]c2cc(F)c(F)cc12)c1cc2ccccc2[nH]1 [Example 65] | < 50 nM |
| CC(NCC(F)(F)F)c1cc2c(cc1F)c(C(=O)Nc1c[nH]c3ccc(F)cc13)cn2C (racemic) [Example 107, rac-5-fluoro-N-(5-fluoro-1H-indol-3-yl)-1-methyl-6-[1-(2,2,2-trifluoroethylamino)ethyl]indole-3-carboxamide] | 50 to 200 nM |
| Cn1cc(C(=O)Nc2c[nH]c3ccc(C#N)cc23)c2ccc(C3=CCOCC3)cc21 [Example 54] | 200 to 1000 nM |
| Cn1cc(C(=O)Nc2c[nH]c3cc(F)c(Cl)cc23)c2cc(F)c(C3CCOCC3)cc21 [Example 48] | 50 to 200 nM |

Same assay, conditions: Homo sapiens, THP-1, THP1 cells, 5 μM 2′3′-cGAMP, IFN β secretion inhibition; numeric values (comparators); read-out: IFN β reporter activity IC50

| Structure (SMILES) | IC50 |
| --- | --- |
| Cn1cc(NC(=O)c2cn(C)c3cc(C(F)(F)F)ccc23)c2cc(C#N)ccc21 [Comparator D, reference compound] | 10000 nM |
| O=C(Nc1c[nH]c2cc(F)c(F)cc12)c1cnc2[nH]ncc2c1 [Comparator A, reference compound] | > 30000 nM |

Same assay, conditions: Homo sapiens, THP-1, read-out: IFN β reporter activity IC50

| Structure (SMILES) | IC50 |
| --- | --- |
| Cn1cc(C(=O)Nc2c[nH]c3ccc(F)cc23)c2ccccc21 [Example 35] | 200 to 1000 nM |
| N#Cc1ccc2[nH]cc(NC(=O)c3cn(C4CC4)c4nc(O[C@H]5CCOC5)ccc34)c2c1 [Example 42] | 200 to 1000 nM |
| Cn1nc(C(=O)Nc2c[nH]c3ccccc23)c2ccc(Br)cc21 [Example 4] | 50 to 200 nM |
| CN1CC(n2cc(C(=O)Nc3c[nH]c4ccc(F)cc34)c3ccc(C(F)(F)F)cc32)C1 [Example 114, N-(5-fluoro-1H-indol-3-yl)-1-(1-methylazetidin-3-yl)-6-(trifluoromethyl)indole-3-carboxamide] | > 1000 nM |
| Cn1cc(C(=O)Nc2c[nH]c3ccccc23)c2ccc(C(F)(F)F)cc21 [Example 18] | 50 to 200 nM |
| O=C(Nc1c[nH]c2ccc(F)cc12)c1cn(C2CC2)c2cc(C(F)(F)F)ccc12 [Example 67, 1-cyclopropyl-N-(5-fluoro-1H-indol-3-yl)-6-(trifluoromethyl)indole-3-carboxamide] | < 50 nM |
| N#Cc1ccc2[nH]cc(NC(=O)c3cn(C4CC4)c4nc(O[C@@H]5CCOC5)ccc34)c2c1 [Example 43] | 200 to 1000 nM |
| N#Cc1ccc2[nH]cc(NC(=O)c3cn(C4COC4)c4cc(C5=CCOCC5)c(F)cc34)c2c1 [Example 112, N-(5-cyano-1H-indol-3-yl)-6-(3,6-dihydro-2H-pyran-4-yl)-5-fluoro-1-(oxetan-3-yl)indole-3-carboxamide] | 50 to 200 nM |
| N#Cc1ccc2[nH]cc(NC(=O)c3cn(C4CC4)c4nc(OCC(F)(F)F)ccc34)c2c1 [Example 41] | 50 to 200 nM |
| Cn1cc(C(=O)Nc2c[nH]c3ccc(F)cc23)c2ccc(Cl)nc21 [Example 71] | 50 to 200 nM |
| Cn1nc(C(=O)Nc2c[nH]c3ccccc23)c2ccc(C(F)(F)F)cc21 [Example 1, N-(1H-indol-3-yl)-1-methyl-6-(trifluoromethyl)indazole-3-carboxamide] | 50 to 200 nM |
| Cn1cc(C(=O)Nc2c[nH]c3ccc(F)cc23)c2ccc(C(F)(F)F)cc21 [Example 20] | < 50 nM |
| CN1CC=C(c2cc3c(cc2F)c(C(=O)Nc2c[nH]c4ccc(F)cc24)cn3C)CC1 [Example 115, 5-fluoro-N-(5-fluoro-1H-indol-3-yl)-1-methyl-6-(1-methyl-3,6-dihydro-2H-pyridin-4-yl)indole-3-carboxamide] | > 1000 nM |
| O=C(Nc1c[nH]c2ccc(F)cc12)c1cn([C@@H]2CCOC2)c2cc(C(F)(F)F)ccc12 [Example 76] | 200 to 1000 nM |
| COCCOc1ccc2c(C(=O)Nc3c[nH]c4ccc(C#N)cc34)cn(C3CC3)c2n1 [Example 47] | 200 to 1000 nM |

Same assay, conditions: THP1 cells, 5 μM 2′3′-cGAMP, IFN β secretion inhibition; class symbols; read-out: IFN β reporter activity IC50

| Structure (SMILES) | IC50 |
| --- | --- |
| O=C(Nc1c[nH]c2ccccc12)c1n[nH]c2cc(C(F)(F)F)ccc12 [Example 2] | 50 to 200 nM |
